One data set deals with ceramide channels. Kind of data set: Screening for influence on ceramide channel formation in liposomes or planar membranes. Format: biochemical. The source says:
In one embodiment, such methods comprise screening compounds for their ability to influence the formation of ceramide channels in liposomes or planar membranes. […] Such liposomes or planar membranes can be produced using any of a variety of lipids. Preferably, however, the constituents of the liposomes or planar membranes will be selected to mimic those of the MOM, or to have relevance to such membranes (see, Weissig, V. et al. (2006) “LIPOSOMES AND LIPOSOME-LIKE VESICLES FOR DRUG AND DNA DELIVERY TO MITOCHONDRIA,” J. Liposome Res. 16(3):249-264; Torchilin, V. P. (2006) “RECENT APPROACHES TO INTRACELLULAR DELIVERY OF DRUGS AND DNA AND ORGANELLE TARGETING,” Annu. Rev. Biomed. Eng. 8:343-375; Elrick, M. J. et al. (2006) “SPHINGOSINE, A PRODUCT OF CERAMIDE HYDROLYSIS, INFLUENCES THE FORMATION OF CERAMIDE CHANNELS,” Biophys. J. 1; 91(5):1749-1756; Bathori, G. et al. (2006) “CA2+-DEPENDENT CONTROL OF THE PERMEABILITY PROPERTIES OF THE MITOCHONDRIAL OUTER MEMBRANE AND VOLTAGE-DEPENDENT ANION-SELECTIVE CHANNEL (VDAC),” J. Biol. Chem. 281(25):17347-17358; Stiban, J. et al. (2006) “DIHYDROCERAMIDE HINDERS CERAMIDE CHANNEL FORMATION: IMPLICATIONS ON APOPIOSIS,” Apoptosis 11(5):773-780; Stover, T. C. et al. (2005) “SYSTEMIC DELIVERY OF LIPOSOMAL SHORT-CHAIN CERAMIDE LIMITS SOLID TUMOR GROWTH IN MURINE MODELS OF BREAST ADENOCARCINOMA,” Clin. Cancer Res. 11(9):3465-3474).

The subject of another data set is erythrocytes. Description: Permeabilization of erythrocytes (osmolytes of varying molecular weight). Format: cell-based.
Data set [1] relates to ceramide channels in the MOM of rat liver mitochondria. Description: Complex IV accessibility assay (cytochrome c oxidation), isolated rat liver mitochondria. The class given is biochemical. The conditions noted are these: radiolabeled ceramide, rat liver mitochondria, FIG. 12. The text has this:
The amount of ceramide that needs to be added to mitochondria to achieve permeabilization of the MOM to proteins is high compared to physiological levels. However, it is not the absolute ceramide concentration in solution that is important, but rather the concentration of ceramide in the membrane. In addition, only a small percentage of the ceramide added to the solution actually inserts into the membrane. This issue was directly addressed by using radiolabeled ceramide and simultaneously measuring how much ceramide inserts into rat liver mitochondria and how much permeabilization is achieved in the MOM by measuring the accessibility of exogenously added cytochrome c. […] Levels measured in mitochondria in the early stages of apoptosis are 4 pmoles per nmole. Thus, the results are well within the physiological range. Note that after correcting for the membrane partitioning, long and short-chain ceramide have equal potency as expected from the model of the ceramide channel.
The ability of the naturally-occurring C16-ceramide to form channels in the mitochondrial outer membranes of isolated yeast mitochondria was assessed via the complex IV accessibility assay. This assay measures the bidirectional flux of cytochrome c across the mitochondrial outer membrane (MOM) by monitoring its oxidation by complex IV of the mitochondrial inner membrane electron transport chain. The initial rate of cytochrome c oxidation when expressed as a percent of the rate measured in mitochondria with damaged outer membranes is a good measure of the permeability of the MOM to proapoptotic proteins. This method has an advantage over simply looking for the release of cytochrome c because both channel prevention and reversal by a potential inhibitor can be evaluated.
Thus, mitochondria are isolated from wild type yeast and yeast strains expressing either human Bcl-2 or Bcl-xL according to previously published methods (Lee, A. et al. (1998) “THE ROLE OF YEAST VDAC GENES ON THE PERMEABILITY OF THE MITOCHONDRIAL OUTER MEMBRANE,” J. Membr. Biol. 161:173-181). Isolated yeast mitochondria are incubated with the naturally occurring C16-ceramide and its ability to form channels is evaluated according to the complex IV accessibility assay (Siskind, L. J. et al. (2002) “CERAMIDE CHANNELS INCREASE THE PERMEABILITY OF THE MITOCHONDRIAL OUTER MEMBRANE To SMALL PROTEINS,” J. Biol. Chem. 277:26796-26803). This assay measures the CN-sensitive oxidation of exogenously-added reduced cytochrome c by cytochrome c oxidase of the inner membrane. […] Mitochondria are incubated with test agents (e.g., C16-ceramide) for a predetermined period of time (e.g., 5-20 minutes), reduced cytochrome c is added and the absorbance is monitored at 550 nm. […]

Consider `OC[C@H]1O[C@H](O[C@H]2O[C@H](CO)[C@@H](O)[C@H](O)[C@H]2O)[C@H](O)[C@@H](O)[C@@H]1O` [trehalose], for which the “concentration exhibiting potent inhibitory effects on ceramide channels” value in the data set on ceramide channels is reported as 50 mM. For ceramide, the “ceramide:phospholipids ratio needed to permeabilize an erythrocyte membrane relative to MOM” value in the data set on erythrocytes is recorded as 20 fold. In data set [1], the “ceramide inserted sufficient to permeabilize the outer membrane to cytochrome c” value is reported as 2 pmoles per nmole of phospholip.
